Assay results taken from patent US10662229B2, “Spider venom peptides and methods of use for modulating sodium channels” (priority 2016, dated 2020).
Where a SMILES comes first, the peptide text is derived from it. Bridges are numbered along the chain shown (N, C = ends).

Assays:
Assay type in all cases: cell-based
hNav1.1 = target: T1, hNav1.1 (Homo sapiens, UniProt P35498); experiment: FLIPR membrane potential assay, hNav1.1; settings: for Selectivity for Nav1.7, Nav subtype 1.1: membrane potential assay
T1 construct: host or cells: HEK293
Protocol: (§1) HEK293 cells stably expressing hNav1.1, hNav1.2, hNav1.3, hNav1.4, hNav1.5, hNav1.6, hNav1.7 and […] (SB Drug Discovery, Glasgow, UK) were cultured in minimum essential media (MEM) containing 10% v/v FBS supplemented with L-glutamine (2 mM) and selection antibiotics G-418 (0.5 mg/mL), blasticidin (2-4 μg/mL) and zeocin (0.5 mg/mL) as recommended by the manufacturer. CHO cells stably expressing hNav1.8 in a tetracycline-inducible system (Chantest, OH, USA) were cultured in Ham's F-12 containing 10% v/v FBS and selection antibiotics as recommended by the manufacturer. To induce hNav1.8 expression, cells were cultured in the presence of tetracycline (1 μg/mL) for 24 h at 27° C. Cells were grown in a humidified 5% CO2 incubator at 37° C., grown to 70-80% confluence, and passaged every 3-4 days using TrypLE Express (Invitrogen).
(§2) Cells were plated 48 h before the assay on 384-well black walled imaging plates at a density of 10,000 to 15,000 cells per well and were loaded with red membrane potential dye for 30 min at 37° C. (Molecular Devices, CA, USA). One vial of bulk red membrane potential dye was reconstituted to a 10× stock solution with PSS and stored at −20° C. and diluted to 1× solution with PSS on the day of the assay. […] Changes in membrane potential were assessed using the FLIPR^TETRA (excitation 515 to 545 nm, emission 565 to 625 nm) every second for 300 s after adding agonists.

hNav1.2 = target: T2, hNav1.2 (Homo sapiens, UniProt Q99250); experiment: FLIPR membrane potential assay, hNav1.2; settings: for Selectivity for Nav1.7, Nav subtype 1.2: membrane potential assay
T2 construct: host or cells: HEK293
Protocol: as §1, §2

hNav1.3 = target: T3, hNav1.3 (Homo sapiens, UniProt Q9NY46); experiment: FLIPR membrane potential assay, hNav1.3; settings: for Selectivity for Nav1.7, Nav subtype 1.3: membrane potential assay
T3 construct: host or cells: HEK293
Protocol: as §1, §2

hNav1.4 = target: T4, hNav1.4 (Homo sapiens, UniProt P35499); experiment: FLIPR membrane potential assay, hNav1.4; settings: for Selectivity for Nav1.7, Nav subtype 1.4: membrane potential assay
T4 construct: host or cells: HEK293
Protocol: as §1, §2

hNav1.5 = target: T5, hNav1.5 (Homo sapiens, UniProt Q14524); experiment: FLIPR membrane potential assay, hNav1.5; settings: for Selectivity for Nav1.7, Nav subtype 1.5: membrane potential assay
T5 construct: host or cells: HEK293
Protocol: as §1, §2

hNav1.6 = target: T6, hNav1.6 (Homo sapiens, UniProt Q9UQD0); experiment: FLIPR membrane potential assay, hNav1.6; settings: for Selectivity for Nav1.7, Nav subtype 1.6: membrane potential assay
T6 construct: host or cells: HEK293
Protocol: as §1, §2

hNav1.8 = target: T7, hNav1.8 (Homo sapiens, UniProt Q9Y5Y9); experiment: FLIPR membrane potential assay, hNav1.8; settings: for Selectivity for Nav1.7, Nav subtype 1.8: membrane potential assay
T7 construct: host or cells: HEK293
Protocol: as §1, §2

hNav1.7 = target: T8, hNav1.7 (Homo sapiens, UniProt Q15858); experiment: FLIPR membrane potential assay, hNav1.7; settings: for Selectivity for Nav1.7, Nav subtype 1.7: membrane potential assay, reference subtype
T8 construct: host or cells: HEK293
Protocol: as §1, §2

T6 sequence (Q9UQD0 whole entry): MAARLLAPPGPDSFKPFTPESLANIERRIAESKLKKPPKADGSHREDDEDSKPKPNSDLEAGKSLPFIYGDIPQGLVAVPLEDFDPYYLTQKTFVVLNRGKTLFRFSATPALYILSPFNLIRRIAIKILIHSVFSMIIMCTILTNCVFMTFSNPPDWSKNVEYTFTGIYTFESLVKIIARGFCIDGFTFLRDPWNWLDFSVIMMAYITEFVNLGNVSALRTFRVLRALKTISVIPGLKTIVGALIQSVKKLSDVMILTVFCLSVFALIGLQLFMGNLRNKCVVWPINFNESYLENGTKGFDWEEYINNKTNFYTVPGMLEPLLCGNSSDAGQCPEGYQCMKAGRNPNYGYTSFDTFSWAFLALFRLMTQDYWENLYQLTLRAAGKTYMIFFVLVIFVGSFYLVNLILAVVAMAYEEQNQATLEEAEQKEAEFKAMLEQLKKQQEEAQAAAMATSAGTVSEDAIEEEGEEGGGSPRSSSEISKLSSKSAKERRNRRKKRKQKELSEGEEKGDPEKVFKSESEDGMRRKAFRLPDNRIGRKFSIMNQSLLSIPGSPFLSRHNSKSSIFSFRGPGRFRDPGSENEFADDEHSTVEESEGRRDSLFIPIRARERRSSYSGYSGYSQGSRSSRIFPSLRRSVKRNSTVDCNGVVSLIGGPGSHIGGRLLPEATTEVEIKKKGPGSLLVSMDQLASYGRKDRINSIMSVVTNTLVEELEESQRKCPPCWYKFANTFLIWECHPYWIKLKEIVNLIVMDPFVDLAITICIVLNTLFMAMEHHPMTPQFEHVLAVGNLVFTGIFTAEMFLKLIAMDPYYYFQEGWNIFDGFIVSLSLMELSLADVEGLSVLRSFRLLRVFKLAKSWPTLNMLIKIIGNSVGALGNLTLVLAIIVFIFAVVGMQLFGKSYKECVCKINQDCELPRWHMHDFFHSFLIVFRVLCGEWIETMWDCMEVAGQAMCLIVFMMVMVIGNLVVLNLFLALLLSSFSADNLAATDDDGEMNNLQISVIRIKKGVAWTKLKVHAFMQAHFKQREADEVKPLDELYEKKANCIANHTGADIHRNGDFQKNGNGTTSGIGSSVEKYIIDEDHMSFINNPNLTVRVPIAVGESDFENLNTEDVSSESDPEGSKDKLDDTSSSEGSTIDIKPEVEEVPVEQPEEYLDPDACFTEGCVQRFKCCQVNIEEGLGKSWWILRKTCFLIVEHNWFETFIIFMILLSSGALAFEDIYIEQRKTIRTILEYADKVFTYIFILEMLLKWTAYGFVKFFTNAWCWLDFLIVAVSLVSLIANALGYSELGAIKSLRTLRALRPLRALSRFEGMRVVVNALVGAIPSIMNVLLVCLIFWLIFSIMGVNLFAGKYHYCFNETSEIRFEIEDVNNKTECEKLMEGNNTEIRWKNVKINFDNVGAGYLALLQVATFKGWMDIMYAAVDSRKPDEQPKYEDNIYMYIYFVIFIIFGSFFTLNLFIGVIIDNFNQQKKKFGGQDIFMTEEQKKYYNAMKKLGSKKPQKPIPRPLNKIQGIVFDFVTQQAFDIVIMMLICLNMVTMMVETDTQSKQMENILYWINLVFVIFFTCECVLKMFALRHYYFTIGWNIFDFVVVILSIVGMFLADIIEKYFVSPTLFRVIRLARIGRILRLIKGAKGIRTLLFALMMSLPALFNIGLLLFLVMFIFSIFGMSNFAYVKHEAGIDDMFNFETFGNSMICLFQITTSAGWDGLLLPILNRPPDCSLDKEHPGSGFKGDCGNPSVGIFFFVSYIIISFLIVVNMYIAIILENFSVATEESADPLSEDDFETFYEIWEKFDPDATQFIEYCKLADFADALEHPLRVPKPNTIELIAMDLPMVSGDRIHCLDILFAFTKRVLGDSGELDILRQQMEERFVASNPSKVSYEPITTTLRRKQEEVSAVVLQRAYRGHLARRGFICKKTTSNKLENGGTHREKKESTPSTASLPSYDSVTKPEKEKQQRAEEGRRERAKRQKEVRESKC
T8 sequence (Q15858 whole entry): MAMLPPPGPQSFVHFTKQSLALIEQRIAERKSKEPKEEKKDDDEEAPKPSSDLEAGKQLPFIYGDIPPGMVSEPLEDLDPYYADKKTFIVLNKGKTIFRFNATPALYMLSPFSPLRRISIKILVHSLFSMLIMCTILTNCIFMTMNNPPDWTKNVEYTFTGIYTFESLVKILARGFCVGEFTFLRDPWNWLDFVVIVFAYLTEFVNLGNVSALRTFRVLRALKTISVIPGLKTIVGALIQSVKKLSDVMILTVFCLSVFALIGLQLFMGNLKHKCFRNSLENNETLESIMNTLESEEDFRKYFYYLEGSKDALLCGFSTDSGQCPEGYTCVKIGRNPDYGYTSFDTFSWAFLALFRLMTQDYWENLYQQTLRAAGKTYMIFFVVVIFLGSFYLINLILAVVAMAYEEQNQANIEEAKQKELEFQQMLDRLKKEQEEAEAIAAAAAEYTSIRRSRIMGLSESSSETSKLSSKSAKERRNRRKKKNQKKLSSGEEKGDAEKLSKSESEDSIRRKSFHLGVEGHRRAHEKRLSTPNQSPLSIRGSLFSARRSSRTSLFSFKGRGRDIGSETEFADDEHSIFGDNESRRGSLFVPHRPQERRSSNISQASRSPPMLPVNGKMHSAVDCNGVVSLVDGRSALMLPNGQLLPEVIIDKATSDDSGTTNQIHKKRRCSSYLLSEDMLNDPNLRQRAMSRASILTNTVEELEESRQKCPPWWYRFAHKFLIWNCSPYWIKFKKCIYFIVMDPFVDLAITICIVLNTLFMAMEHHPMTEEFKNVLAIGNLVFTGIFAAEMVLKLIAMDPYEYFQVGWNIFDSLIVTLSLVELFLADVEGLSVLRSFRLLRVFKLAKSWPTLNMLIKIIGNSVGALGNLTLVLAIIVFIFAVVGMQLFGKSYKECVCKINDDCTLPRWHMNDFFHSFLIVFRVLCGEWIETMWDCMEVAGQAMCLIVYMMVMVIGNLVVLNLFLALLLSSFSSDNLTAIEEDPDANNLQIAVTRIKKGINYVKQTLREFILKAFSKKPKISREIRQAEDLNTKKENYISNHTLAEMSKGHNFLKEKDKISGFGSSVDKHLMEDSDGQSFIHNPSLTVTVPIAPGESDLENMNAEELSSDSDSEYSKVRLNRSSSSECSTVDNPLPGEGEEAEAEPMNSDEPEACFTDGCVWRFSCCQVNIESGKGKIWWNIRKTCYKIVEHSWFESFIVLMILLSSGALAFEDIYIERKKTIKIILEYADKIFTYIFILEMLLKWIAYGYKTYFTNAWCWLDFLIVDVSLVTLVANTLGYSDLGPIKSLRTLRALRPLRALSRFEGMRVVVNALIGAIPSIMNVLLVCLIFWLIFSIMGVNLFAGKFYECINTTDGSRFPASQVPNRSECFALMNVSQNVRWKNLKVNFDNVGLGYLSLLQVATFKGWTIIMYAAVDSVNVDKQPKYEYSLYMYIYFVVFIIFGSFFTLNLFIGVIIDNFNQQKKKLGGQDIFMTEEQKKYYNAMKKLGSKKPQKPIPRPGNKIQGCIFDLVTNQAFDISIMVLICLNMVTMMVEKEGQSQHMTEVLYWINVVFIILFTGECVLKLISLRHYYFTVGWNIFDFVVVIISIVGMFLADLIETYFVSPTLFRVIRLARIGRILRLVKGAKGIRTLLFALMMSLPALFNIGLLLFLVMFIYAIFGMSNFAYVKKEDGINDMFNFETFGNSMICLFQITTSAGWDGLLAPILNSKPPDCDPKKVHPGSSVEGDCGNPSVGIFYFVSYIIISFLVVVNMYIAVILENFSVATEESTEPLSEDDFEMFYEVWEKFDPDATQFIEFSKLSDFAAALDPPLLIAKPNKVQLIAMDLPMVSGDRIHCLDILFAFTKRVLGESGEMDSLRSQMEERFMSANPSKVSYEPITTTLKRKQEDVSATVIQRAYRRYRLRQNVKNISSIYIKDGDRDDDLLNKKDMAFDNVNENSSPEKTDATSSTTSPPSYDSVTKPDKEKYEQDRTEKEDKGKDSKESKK

Row | SMILES | IC50 (hNav1.1) | IC50 (hNav1.2) | IC50 (hNav1.3) | IC50 (hNav1.4) | IC50 (hNav1.5) | IC50 (hNav1.6) | IC50 (hNav1.8) | Selectivity for Nav1.7, Nav subtype 1.1 (hNav1.1) | Selectivity for Nav1.7, Nav subtype 1.2 (hNav1.2) | Selectivity for Nav1.7, Nav subtype 1.3 (hNav1.3) | Selectivity for Nav1.7, Nav subtype 1.4 (hNav1.4) | Selectivity for Nav1.7, Nav subtype 1.5 (hNav1.5) | Selectivity for Nav1.7, Nav subtype 1.6 (hNav1.6) | IC50 (hNav1.7) | Selectivity for Nav1.7, Nav subtype 1.7 (hNav1.7) | Selectivity for Nav1.7, Nav subtype 1.8 (hNav1.8)
1 | CSCC[C@@H]1NC(=O)[C@H](Cc2ccc(O)cc2)NC(=O)[C@H](CCCNC(=N)N)NC(=O)[C@@H](NC(=O)[C@H](CC(=O)O)NC(C)=O)CSSC[C@@H]2NC(=O)[C@@H]3CSSC[C@@H](C(=O)N[C@@H](C)C(=O)N[C@@H](Cc4c[nH]c5ccccc45)C(=O)N[C@@H](CC(=O)O)C(=O)N[C@@H](Cc4ccccc4)C(=O)N[C@H](C(=O)N[C@@H](Cc4ccccc4)C(=O)N[C@H](C(=O)O)[C@@H](C)O)[C@@H](C)O)NC(=O)[C@H](Cc4ccc(O)cc4)NC(=O)[C@H](CCCCN)NC(=O)[C@H](CCSC)NC(=O)[C@H](CCCCN)NC(=O)[C@H](CCCNC(=N)N)NC(=O)[C@H](CCCCN)NC(=O)[C@H](CSSC[C@H](NC(=O)[C@H](CC(=O)O)NC(=O)CNC(=O)[C@H](Cc4ccccc4)NC1=O)C(=O)N[C@@H](CCC(=O)O)C(=O)N[C@@H](CCCCN)C(=O)N[C@@H](CC(=O)O)C(=O)N[C@@H](CCC(=O)O)C(=O)N[C@@H](CC(=O)O)C(=O)N3)NC(=O)CNC(=O)[C@H](CC(C)C)NC(=O)[C@H](Cc1c[nH]cn1)NC(=O)[C@H](CCCCN)NC2=O [Ac-Pnc1a] | 23 µM | 5 µM | 8 µM | 14 µM | > 30 µM | 16 µM | > 30 µM |  |  |  |  |  |  |  |  | 
2 | CSCC[C@@H]1NC(=O)[C@H](Cc2ccc(O)cc2)NC(=O)[C@H](CCCNC(=N)N)NC(=O)[C@@H](NC(=O)[C@@H](N)CC(=O)O)CSSC[C@@H]2NC(=O)[C@@H]3CSSC[C@@H](C(=O)N[C@@H](C)C(=O)N[C@@H](Cc4c[nH]c5ccccc45)C(=O)N[C@@H](CC(=O)O)C(=O)N[C@@H](Cc4ccccc4)C(=O)N[C@H](C(=O)N[C@@H](Cc4ccccc4)C(=O)N[C@H](C(N)=O)[C@@H](C)O)[C@@H](C)O)NC(=O)[C@H](Cc4ccc(O)cc4)NC(=O)[C@H](CCCCN)NC(=O)[C@H](CCSC)NC(=O)[C@H](CCCCN)NC(=O)[C@H](CCCNC(=N)N)NC(=O)[C@H](CCCCN)NC(=O)[C@H](CSSC[C@H](NC(=O)[C@H](CC(=O)O)NC(=O)CNC(=O)[C@H](Cc4ccccc4)NC1=O)C(=O)N[C@@H](CCC(=O)O)C(=O)N[C@@H](CCCCN)C(=O)N[C@@H](CC(=O)O)C(=O)N[C@@H](CCC(=O)O)C(=O)N[C@@H](CC(=O)O)C(=O)N3)NC(=O)CNC(=O)[C@H](CC(C)C)NC(=O)[C@H](Cc1c[nH]cn1)NC(=O)[C@H](CCCCN)NC2=O [Pnc1a-CONH2] | 8 µM | 3 µM | 7 µM | 16 µM | > 30 µM | 20 µM | > 30 µM |  |  |  |  |  |  |  |  | 
3 | CSCC[C@@H]1NC(=O)[C@H](Cc2ccc(O)cc2)NC(=O)[C@H](CCCNC(=N)N)NC(=O)[C@@H](NC(=O)[C@H](CC(=O)O)NC(=O)[C@@H](N)CO)CSSC[C@@H]2NC(=O)[C@@H]3CSSC[C@@H](C(=O)N[C@@H](C)C(=O)N[C@@H](Cc4c[nH]c5ccccc45)C(=O)N[C@@H](CC(=O)O)C(=O)N[C@@H](Cc4ccccc4)C(=O)N[C@H](C(=O)N[C@@H](Cc4ccccc4)C(=O)N[C@H](C(=O)O)[C@@H](C)O)[C@@H](C)O)NC(=O)[C@H](Cc4ccc(O)cc4)NC(=O)[C@H](CCCCN)NC(=O)[C@H](CCSC)NC(=O)[C@H](CCCCN)NC(=O)[C@H](CCCNC(=N)N)NC(=O)[C@H](CCCCN)NC(=O)[C@H](CSSC[C@H](NC(=O)[C@H](CC(=O)O)NC(=O)CNC(=O)[C@H](Cc4ccccc4)NC1=O)C(=O)N[C@@H](CCC(=O)O)C(=O)N[C@@H](CCCCN)C(=O)N[C@@H](CC(=O)O)C(=O)N[C@@H](CCC(=O)O)C(=O)N[C@@H](CC(=O)O)C(=O)N3)NC(=O)CNC(=O)[C@H](CC(C)C)NC(=O)[C@H](Cc1c[nH]cn1)NC(=O)[C@H](CCCCN)NC2=O [S0-Pnc1a] (H-SDCRYMFGDCEKDEDCCKHLGCKRKMKYCAWDFTFT-OH; disulfide 3-17, 10-22, 16-29) | 9 µM | 3 µM | 6 µM | 11 µM | > 30 µM | 19 µM | > 30 µM | 32 | 10 | 22 | 40 | >107 | 68 | 282 nM | 1 | >107
4 | CSCC[C@@H]1NC(=O)[C@H](Cc2ccc(O)cc2)NC(=O)[C@H](CCCNC(=N)N)NC(=O)[C@@H](NC(=O)[C@@H](N)CCCCN)CSSC[C@@H]2NC(=O)[C@@H]3CSSC[C@@H](C(=O)N[C@@H](C)C(=O)N[C@@H](Cc4c[nH]c5ccccc45)C(=O)N[C@@H](CC(=O)O)C(=O)N[C@@H](Cc4ccccc4)C(=O)N[C@H](C(=O)N[C@@H](Cc4ccccc4)C(=O)N[C@H](C(=O)O)[C@@H](C)O)[C@@H](C)O)NC(=O)[C@H](Cc4ccc(O)cc4)NC(=O)[C@H](CCCCN)NC(=O)[C@H](CCSC)NC(=O)[C@H](CCCCN)NC(=O)[C@H](CCCNC(=N)N)NC(=O)[C@H](CCCCN)NC(=O)[C@H](CSSC[C@H](NC(=O)[C@H](CC(=O)O)NC(=O)CNC(=O)[C@H](Cc4ccccc4)NC1=O)C(=O)N[C@@H](CCC(=O)O)C(=O)N[C@@H](CCCCN)C(=O)N[C@@H](CC(=O)O)C(=O)N[C@@H](CCC(=O)O)C(=O)N[C@@H](CC(=O)O)C(=O)N3)NC(=O)CNC(=O)[C@H](CC(C)C)NC(=O)[C@H](Cc1c[nH]cn1)NC(=O)[C@H](CCCCN)NC2=O [[D1K]Pnc1a] (H-KCRYMFGDCEKDEDCCKHLGCKRKMKYCAWDFTFT-OH; disulfide 2-16, 9-21, 15-28) | 0.754 µM | 0.261 µM | 4 µM | 3 µM | > 30 µM | > 30 µM | > 30 µM | 24 | 8 | 134 | 86 | >900 | >900 | 31 nM | 1 | >900
5 | CSCC[C@@H]1NC(=O)[C@H](Cc2ccc(O)cc2)NC(=O)[C@H](CCCNC(=N)N)NC(=O)[C@@H](NC(=O)[C@@H](N)CC(=O)O)CSSC[C@@H]2NC(=O)[C@@H]3CSSC[C@@H](C(=O)N[C@@H](C)C(=O)N[C@@H](Cc4c[nH]c5ccccc45)C(=O)N[C@@H](CC(=O)O)C(=O)N[C@@H](Cc4ccccc4)C(=O)N[C@H](C(=O)N[C@@H](Cc4ccccc4)C(=O)N[C@H](C(=O)O)[C@@H](C)O)[C@@H](C)O)NC(=O)[C@H](Cc4ccc(O)cc4)NC(=O)[C@H](CCCCN)NC(=O)[C@H](CCSC)NC(=O)[C@H](CCCCN)NC(=O)[C@H](CCCNC(=N)N)NC(=O)[C@H](CCCCN)NC(=O)[C@H](CSSC[C@H](NC(=O)[C@H](CC(=O)O)NC(=O)CNC(=O)[C@H](Cc4ccccc4)NC1=O)C(=O)N[C@@H](CCC(=O)O)C(=O)N[C@@H](CCCCN)C(=O)N[C@@H](CC(=O)O)C(=O)N[C@@H](CCCCN)C(=O)N[C@@H](CC(=O)O)C(=O)N3)NC(=O)CNC(=O)[C@H](CC(C)C)NC(=O)[C@H](Cc1c[nH]cn1)NC(=O)[C@H](CCCCN)NC2=O [[E13K]Pnc1a] (H-DCRYMFGDCEKDKDCCKHLGCKRKMKYCAWDFTFT-OH; disulfide 2-16, 9-21, 15-28) |  | 0.378 µM | 6 µM | 2 µM | > 30 µM | 1 µM | > 30 µM |  | 4 | 66 | 27 | >300 | 14 |  | 1 | >300
